Source: patent US20140039044A1, “Hydroxylated Polymethoxyflavone Compositions” (WLLGEN, INC., priority 2006, published 2014)

Columns and labels:
Format in all cases: cell-based, human
HT-29 cells [1] = experiment: Apoptotic ratio by propidium iodide flow cytometry (AC50); conditions: read-out: Apoptosis-inducing AC50
Method: (§1) The human cancer cells (2×10^5) were cultured in 60-mm Petri dishes and incubated for 24 h. After treated with test compounds for 24 h, the cells were then harvested, washed with PBS resuspended in 200 μL of PBS, and fixed in 800 μL of iced 100% ethanol at −20° C. After being left to stand overnight, the cell pellets were collected by centrifugation, resuspended in 1 mL of hypotonic buffer (0.5% Triton X-100 in PBS and 0.5 μg/mL RNase) and incubated at 37° C. for 30 min. Next, 1 mL of propidium iodide solution (50 μg/mL) was added, and the mixture was allowed to stand on ice for 30 min. Fluorescence emitted from the propidium iodide-DNA complex was quantitated after excitation of the fluorescent dye by FACScan cytometry (Becton Dickinson, San Jose, Calif.).
The PMF compounds were assayed in vitro for cell growth inhibition and for their ability to induce apoptosis in various human cancer cells, including HL-60, AGS, COLO 205, and HT-29 cells, using methods described in Section 8.4 above. Antiproliferative (IC50) and apoptosis-inducing activity (AC50) of PMFs in the HL-60, AGS, COLO 205, and HT-29 cells are reported in Table 9, where *P<0.05, **P<0.01 and ***P<0.001 indicate statistically significant differences from the control group.

HL-60 cells = experiment: Cell cycle distribution by flow cytometry; conditions: 24 h, Table 10
Method: as §1
(§2) The effects of the hydrolyzed PMF-enriched compositions, nobiletin and 70% PMF OPE on cell cycle distribution were studied, following the procedures described in Section 8.4. Results for cell cycle distribution in HL-60 cells, COLO205 cells and AGS cells are provided in Table 5, Table 6 and Table 7, respectively. […] In HL-60 cells, G2/M arrest predominated in cells treated with 6N PMF concentrations ≧5 μM and with 1N PMF concentrations ≧25 μM.
(§3) Compounds A-K were evaluated in terms of their effects in arresting cell cycle progression by observing cell cycle phase distribution in cells treated with the compounds. Cells were treated with 5, 10, 25, 50, and 100 μM of one of compound A-K or DMSO (control) for 24 h and subjected to flow cytometric analysis after staining their DNA, as described above.

AGS cells = experiment: Cell cycle distribution by flow cytometry; conditions: 24 h, Table 11
Method: as §1, §2, §3
(§4) Similar cell cycle phase distribution studies were performed in AGS, COLO205, and HT-29 cells in response to individual PMFs, with results reported in Tables 11, 12 and 13, respectively.

COLO205 cells = experiment: Cell cycle distribution by flow cytometry; conditions: COLO205 cells, 24 h, Table 12
Method: as §1, §2, §3, §4

HT-29 cells [2] = experiment: Cell cycle distribution by flow cytometry; conditions: 24 h
Method: as §1, §3, §4

COc1ccc(-c2oc3c(OC)c(OC)c(OC)c(OC)c3c(=O)c2O)cc1OC [B, 3-hydroxy-5,6,7,8,3′,4-hexamethoxyflavone]
AC50 (HT-29 cells [1]): > 100 µM
Cell Cycle Distribution G0/G1 (HL-60 cells; 5 μM): 42.63 ± 0.85
Cell Cycle Distribution G2/M (HL-60 cells; 5 μM): 9.99 ± 1.70
Cell Cycle Distribution S (HL-60 cells; 5 μM): 47.38 ± 0.42
Cell Cycle Distribution G0/G1 (HL-60 cells; 10 μM): 40.76 ± 0.28
Cell Cycle Distribution G2/M (HL-60 cells; 10 μM): 0.23 ± 0.42
Cell Cycle Distribution S (HL-60 cells; 10 μM): 59.01 ± 0.78
Cell Cycle Distribution G0/G1 (HL-60 cells; 25 μM): 47.74 ± 0.71
Cell Cycle Distribution G2/M (HL-60 cells; 25 μM): 0.00 ± 0.64
Cell Cycle Distribution S (HL-60 cells; 25 μM): 52.26 ± 0.64
Cell Cycle Distribution G0/G1 (HL-60 cells; 50 μM): 41.48 ± 0.85
Cell Cycle Distribution G2/M (HL-60 cells; 50 μM): 0.00 ± 0.57
Cell Cycle Distribution S (HL-60 cells; 50 μM): 58.52 ± 0.42
Cell Cycle Distribution G0/G1 (HL-60 cells; 100 μM): 49.63 ± 0.28
Cell Cycle Distribution G2/M (HL-60 cells; 100 μM): 0.51 ± 0.64
Cell Cycle Distribution S (HL-60 cells; 100 μM): 43.86 ± 0.21
Cell Cycle Distribution G0/G1 (AGS cells; 5 μM): 47.1 ± 1.27
Cell Cycle Distribution G2/M (AGS cells; 5 μM): 5.6 ± 0.28
Cell Cycle Distribution S (AGS cells; 5 μM): 45.8 ± 1.20
Cell Cycle Distribution G0/G1 (AGS cells; 10 μM): 46.7 ± 0.92
Cell Cycle Distribution G2/M (AGS cells; 10 μM): 10.4 ± 0.07
Cell Cycle Distribution S (AGS cells; 10 μM): 44.1 ± 0.57
Cell Cycle Distribution G0/G1 (AGS cells; 25 μM): 39.8 ± 0.78
Cell Cycle Distribution G2/M (AGS cells; 25 μM): 6.5 ± 0.07
Cell Cycle Distribution S (AGS cells; 25 μM): 54.2 ± 0.28
Cell Cycle Distribution G0/G1 (AGS cells; 50 μM): 43.1 ± 1.56
Cell Cycle Distribution G2/M (AGS cells; 50 μM): 7.4 ± 0.42
Cell Cycle Distribution S (AGS cells; 50 μM): 51.2 ± 1.06
Cell Cycle Distribution G0/G1 (AGS cells; 100 μM): 46.8 ± 0.28
Cell Cycle Distribution G2/M (AGS cells; 100 μM): 9.3 ± 0.42
Cell Cycle Distribution S (AGS cells; 100 μM): 44.5 ± 0.14
Cell Cycle Distribution G0/G1 (COLO205 cells; 5 μM): 63.59 ± 0.48
Cell Cycle Distribution G2/M (COLO205 cells; 5 μM): 0.89 ± 0.94
Cell Cycle Distribution S (COLO205 cells; 5 μM): 35.53 ± 0.46
Cell Cycle Distribution G0/G1 (COLO205 cells; 10 μM): 63.12 ± 0.20
Cell Cycle Distribution G2/M (COLO205 cells; 10 μM): 5.63 ± 0.28
Cell Cycle Distribution S (COLO205 cells; 10 μM): 31.25 ± 0.48
Cell Cycle Distribution G0/G1 (COLO205 cells; 25 μM): 64.96 ± 0.99
Cell Cycle Distribution G2/M (COLO205 cells; 25 μM): 0.41 ± 0.31
Cell Cycle Distribution S (COLO205 cells; 25 μM): 34.63 ± 0.68
Cell Cycle Distribution G0/G1 (COLO205 cells; 50 μM): 63.32 ± 0.52
Cell Cycle Distribution G2/M (COLO205 cells; 50 μM): 0.31 ± 0.11
Cell Cycle Distribution S (COLO205 cells; 50 μM): 36.39 ± 0.62
Cell Cycle Distribution G0/G1 (COLO205 cells; 100 μM): 78.51 ± 0.63
Cell Cycle Distribution G2/M (COLO205 cells; 100 μM): 3.99 ± 0.95
Cell Cycle Distribution S (COLO205 cells; 100 μM): 17.51 ± 1.58
Cell Cycle Distribution G0/G1 (HT-29 cells [2]; 5 μM): 63.71 ± 1.80
Cell Cycle Distribution G2/M (HT-29 cells [2]; 5 μM): 6.50 ± 0.37
Cell Cycle Distribution S (HT-29 cells [2]; 5 μM): 29.8 ± 1.42
Cell Cycle Distribution G0/G1 (HT-29 cells [2]; 10 μM): 69.27 ± 3.06
Cell Cycle Distribution G2/M (HT-29 cells [2]; 10 μM): 5.60 ± 0.85
Cell Cycle Distribution S (HT-29 cells [2]; 10 μM): 25.14 ± 2.21
Cell Cycle Distribution G0/G1 (HT-29 cells [2]; 25 μM): 70.85 ± 1.84
Cell Cycle Distribution G2/M (HT-29 cells [2]; 25 μM): 4.37 ± 0.62
Cell Cycle Distribution S (HT-29 cells [2]; 25 μM): 24.8 ± 1.23
Cell Cycle Distribution G0/G1 (HT-29 cells [2]; 50 μM): 70.11 ± 1.44
Cell Cycle Distribution G2/M (HT-29 cells [2]; 50 μM): 10.73 ± 0.47
Cell Cycle Distribution S (HT-29 cells [2]; 50 μM): 19.18 ± 0.96
Cell Cycle Distribution G0/G1 (HT-29 cells [2]; 100 μM): 66.75 ± 1.06
Cell Cycle Distribution G2/M (HT-29 cells [2]; 100 μM): 8.82 ± 0.26
Cell Cycle Distribution S (HT-29 cells [2]; 100 μM): 24.45 ± 0.80
